# From paper PMC5384001 (Scientific Reports, 2017)
# Residue numbers refer to the chain shown, from its start. “And” between values parts separate entries of the source, which are not always exact repeats. Identical values can stand only once.
# What was measured:
# GluD2-Lc = target: T1, GluD2-Lc (Rattus norvegicus, UniProt Q63226, A654T); experiment: Two-electrode voltage clamp in Xenopus oocytes, inhibition of spontaneous currents; assay type: cell-based
# T1 construct: the function of full-length receptors as well, we introduced them into the GluD2 lurcher mutant (GluD2-Lc); expressed in transfected cells; host or cells: Xenopus laevis oocytes injected with cRNA
# T1 sequence (Q63226 24-1007 A654T): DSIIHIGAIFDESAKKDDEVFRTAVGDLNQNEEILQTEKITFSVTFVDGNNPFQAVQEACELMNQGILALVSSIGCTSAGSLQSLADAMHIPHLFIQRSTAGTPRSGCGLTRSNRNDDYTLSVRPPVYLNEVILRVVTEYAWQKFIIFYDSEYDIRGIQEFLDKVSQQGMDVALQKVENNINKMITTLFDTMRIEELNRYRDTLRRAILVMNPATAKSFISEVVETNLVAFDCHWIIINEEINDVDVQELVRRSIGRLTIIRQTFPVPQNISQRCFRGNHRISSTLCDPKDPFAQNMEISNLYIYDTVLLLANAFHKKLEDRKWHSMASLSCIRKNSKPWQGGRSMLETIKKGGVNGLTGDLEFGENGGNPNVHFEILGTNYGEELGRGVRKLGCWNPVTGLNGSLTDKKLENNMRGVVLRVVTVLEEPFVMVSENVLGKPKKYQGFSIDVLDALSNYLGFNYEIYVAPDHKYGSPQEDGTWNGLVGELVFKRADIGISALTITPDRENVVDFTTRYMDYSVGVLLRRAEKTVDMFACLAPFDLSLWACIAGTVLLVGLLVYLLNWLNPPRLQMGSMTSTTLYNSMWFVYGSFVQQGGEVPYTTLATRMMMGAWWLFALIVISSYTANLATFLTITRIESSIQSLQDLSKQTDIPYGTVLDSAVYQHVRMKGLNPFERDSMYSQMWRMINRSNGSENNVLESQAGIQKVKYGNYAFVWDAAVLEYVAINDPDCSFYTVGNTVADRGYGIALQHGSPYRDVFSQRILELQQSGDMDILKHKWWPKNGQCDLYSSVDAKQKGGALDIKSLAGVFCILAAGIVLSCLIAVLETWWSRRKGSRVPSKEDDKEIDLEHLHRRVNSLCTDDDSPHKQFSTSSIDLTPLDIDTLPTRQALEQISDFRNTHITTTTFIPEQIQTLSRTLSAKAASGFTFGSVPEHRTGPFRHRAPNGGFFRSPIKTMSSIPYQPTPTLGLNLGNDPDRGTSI
# Text: (§1) All cDNAs for expression in Xenopus oocytes were cloned into the vector pSGEM[30]. Point mutants of GluD2-Lc were constructed by overlap extension PCR with mutagenic oligonucleotide primers. The GluD2-Lc-(H)GluN1 chimera was constructed by transferring the S1- and S2-encoding sequences from GluD2-LBD-(H)GluN1 to GluD2-Lc via overlap extension PCR using tail primers. The S1 and S2 sequences were transferred separately, yielding GluD2-Lc-(HS1)GluN1 and GluD2-Lc-(HS2)GluN1 constructs. GluD2-Lc-(H)GluN1 was then produced from these by another overlap extension PCR. Complementary RNA (cRNA) for injection into oocytes was synthesised from 1 μg of linearised template DNA with the mMESSAGE mMACHINE in vitro transcription kit (Ambion, Austin, TX, USA).
# (§2) Oocytes were obtained by surgically removing parts of the ovaries from Xenopus laevis (Nasco, Fort Atkinson, WI, USA) anaesthetised with 1.5 g/L 3-aminobenzoic acid ethylester (Sigma, Taufkirchen, Germany). […] Oocytes were injected with 11 ng cRNA (10 ng of each cRNA for co-expression of GluN1 and GluN2A) using a nanoliter injector (WPI, Sarasota, FL, USA). Four days after cRNA injection, current responses were recorded under voltage clamp at –70 mV with a Turbo Tec-10CD amplifier (npi electronic, Tamm, Germany) controlled by Patchmaster software (HEKA, Lambrecht, Germany). Currents were filtered with a 20 Hz low-pass filter and then digitised with a sampling rate of 50 Hz. Recording electrodes were pulled from borosilicate glass (Hilgenberg, Malsfeld, Germany) with an L/M-3P-A vertical pipette puller (List-Medical), filled with 3 M KCl, and had resistances of 0.5–5 MΩ (voltage electrode) or 0.5–1.5 MΩ (current electrode). Recordings were performed in a 50 μL chamber under constant superfusion with extracellular solution at a flow rate of 3–5 mL/min. […] Finally, Ba-NFR and then NMDGR were applied again to check for reversibility.
# GluD2-Lc-(HS1)GluN1 = target: T2, GluD2-Lc-(HS1)GluN1 (Rattus norvegicus, UniProt Q63226, A654T/D542Y/S544G/Y543Q); experiment: as above; assay type: cell-based; conditions: fraction of spontaneous current inhibited by saturating D-serine
# T2 construct: the function of full-length receptors as well, we introduced them into the GluD2 lurcher mutant (GluD2-Lc); expressed in transfected cells; host or cells: Xenopus laevis oocytes injected with cRNA
# T2 sequence (Q63226 24-1007 D542Y/Y543Q/S544G/A654T): T1 sequence (Q63226 24-1007 A654T) with D519Y, Y520Q, S521G
# Text: as §1, §2
compound,measurement,setting,value
N[C@H](CO)C(=O)O [D-serine],D-serine efficacy Mean ± SEM,GluD2-Lc; fraction of spontaneous current inhibited by saturating D-serine,46% and 46.2 ± 1.9%
same,"maximal, absolute, D-serine-induced steady-state inhibition of spontaneous currents",GluD2-Lc; n = 20,222 ± 36 nA
same,D-serine efficacy Mean ± SEM,GluD2-Lc-(HS1)GluN1,29% and 29.1 ± 1.1%
